Experimental data from patent publication US6448030B1, “Method for predicting the efficacy of anti-cancer drugs” (University of Nevada-Las Vegas, priority 2000, dated 2002).

Columns and labels:
[1] = tested on: human breast cancer cells; assay: Haptotactic migration of breast cancer cells towards fibronectin in a migration plate, migrated cells labeled with calcein-AM; assay type: cell-based; conditions: for inhibition of migration, dose dependence: sublethal concentration
Description: (§1) After 18 hours, migrated cells were labeled with calcein-AM and fluorescence quantitated from the bottom. Nonmigrated cells were labeled with propidium iodide and fluorescence quantitated from the top. Estimation of 100% cell death was made by lysing cells in a test chamber with 1% Triton X-100 (TX 100) Error bars represent the standard deviation of 4-16 replicate test chambers. Asterisks represent a significant difference from migration without drugs (P<0.05). RFU=relative fluorescence units.
(§2) The cell suspension was added to the first chamber of a migration plate containing 96 chambers per plate at a concentration of about 80,000 cells per chamber. The migration plate used in this assay was manufactured by Polyfiltronics. Similar plates are available from Becton-Dickinson (U.S. Pat No. 5,801,055). The second chamber contained either haptotactic stimulus in the form of 20 μg/ml fibronectin or chemotactic in the form of 5% fetal calf serum. Cells were allowed to migrate in a humidified incubator at 37° C. and 5% carbon dioxide […].
(§3) During the last half hour of the incubation, calcein-AM (Molecular Probes, Eugene, Oreg.) was added to the second chamber to a final concentration of 5 μM and propidium iodide was added to the first chamber to a final concentration of 30 μM. At the end of the incubation the underside of the filters were washed twice in phosphate buffered saline. Fluorescence from each individual well chamber was measured from the bottom using 485 nm excitation and 530 nm emission filters.
(§4) Fluorescence from each individual well chamber was measured from the top using 560 nm excitation and 645 nm emission wavelength filters using a Tecan SpectraFluor fluorescent plate reader (Research Triangle Park NC). […] The asterisks represent a significant difference from positive control (p<0.05).

[2] = tested on: human breast cancer cells; assay: Chemotactic migration of breast cancer cells towards serum in a migration plate, migrated cells labeled with calcein-AM; assay type: cell-based; conditions: highly metastatic breast cells; for inhibition at 20 µM: 20 μM drug
Description: as §1, §2, §3, §4

[3] = haptotactic and chemotactic migration
[4] = Homo sapiens, serum stimulus, read-out: inhibition of chemotaxis

Row | Compound | inhibition of haptotaxis ([1]; 20 μM drug, fibronectin stimulus, highly metastatic breast cells) | inhibition at 10 µM ([1]; Homo sapiens, 10 μM drug, fibronectin stimulus, highly metastatic breast cells, read-out: inhibition of haptotaxis) [%] | effectiveness at halting migration, comparison of the two drugs [1, 3] | inhibition of migration, dose dependence [1, 3] | haptotactic migration inhibition relative to concentrations causing cell death ([1]; highly metastatic breast cells, FIGS. 3A, 3B) | inhibition at 10 µM ([2]; Homo sapiens, 10 μM drug, serum stimulus, read-out: inhibition of chemotaxis) [%] | inhibition at 20 µM [2, 4] [%] | chemotactic migration inhibition relative to concentrations causing cell death ([2]; FIGS. 3A, 3B) | inhibition of haptotaxis ([1]; 10 μM drug, fibronectin stimulus, highly metastatic breast cells) | inhibition at 20 µM ([1]; Homo sapiens, 20 μM drug, fibronectin stimulus, highly metastatic breast cells, read-out: inhibition of haptotaxis) [%] | inhibition of chemotaxis ([2]; 10 μM drug, serum stimulus)
1 | NC(=O)c1nnn(Cc2cc(Cl)c(C(=O)c3ccc(Cl)cc3)c(Cl)c2)c1N [CAI, carboxyamido-triazole] | abolished haptotaxis | 32 | more effective than tamoxifen at halting migration | inhibited migration in a dose-dependent manner at sublethal concentration | inhibited at lower concentrations than those that cause cell death | 7 | 42 | inhibited at lower concentrations than those that cause cell death | – | – | –
2 | CC/C(=C(\c1ccccc1)c1ccc(OCCN(C)C)cc1)c1ccccc1 [tamoxifen] | – | – | – | inhibited migration in a dose-dependent manner at sublethal concentration | – | – | 9 | – | non-significant inhibition | 51 | non-significant inhibition
